Test results reported in PMC4546618, “Casitas B-Lineage Lymphoma RING Domain Inhibitors Protect Mice against High-Fat Diet-Induced Obesity and Insulin Resistance” (PLoS ONE, 2015).
*1 amine or outer side, *2 acyl side, *3 side chain or, on linkers, in order; H or OH if unused. Where a SMILES comes first, the peptide text is derived from it. [ ]: non-standard residue; d: D form. Phe(4-NO2) = N[C@@H](Cc1ccc([N+](=O)[O-])cc1)C(=O)O; X2 = CC(=O)CN(CCCC[C@H](N[*:1])C(=O)[*:2])C(C)=O; Pro(trans-4-F) = O=C(O)[C@@H]1C[C@@H](F)CN1; X1 = CC(=O)N(O)CCCC[C@H](N[*:1])C(=O)[*:2]; Phe(4-NH2) = Nc1ccc(C[C@H](N)C(=O)O)cc1; Phe(3-F) = N[C@@H](Cc1cccc(F)c1)C(=O)O; Phe(3-Me) = Cc1cccc(C[C@H](N)C(=O)O)c1; Phe(4-F) = N[C@@H](Cc1ccc(F)cc1)C(=O)O; Phe(2-F) = N[C@@H](Cc1ccccc1F)C(=O)O; Phe(2-Me) = Cc1ccccc1C[C@H](N)C(=O)O; Cha = N[C@@H](CC1CCCCC1)C(=O)O; ΔPro = O=C(O)[C@@H]1C=CCN1; Pip = O=C(O)[C@@H]1CCCCN1; Thz = O=C(O)[C@@H]1CSCN1; Aze = O=C(O)[C@@H]1CCN1

Target: T1, Cbl (RING) protein (Homo sapiens, UniProt P22681)
T1 construct: including the linker and RING domain (codon 358–457); GST (Glutathione S-Transferase); made in house
T1 sequence (P22681 358-457): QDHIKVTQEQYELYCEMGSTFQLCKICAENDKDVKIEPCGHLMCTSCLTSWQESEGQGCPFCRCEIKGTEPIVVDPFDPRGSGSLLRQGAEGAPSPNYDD
Experiment: Fluorescence polarization (FP) assay, competition with FITC-βA-PFKPP-NH2 probe
Type: binding
Settings: probe FITC-βA-PFKPP-NH2 100 nmol/L, Cbl (RING) protein 3 μmol/L, PBS pH 7.4
Experimental: Peptides and peptide mimetics were purchased from MitenChem (China) with a purity ≥ 98%. Concentrations values of reconstituted peptides were determined by amino acid analysis at the protein core facility (Chengdu Medical College). The recombinant Cbl protein was produced by the Chengdu Medical College Protein Core Facility and was described previously. The c-Cbl (RING) protein, including the linker and RING domain (codon 358–457), was tagged with Glutathione S-Transferase (GST) and purified with GSH-Sepharose (Shanghai Biopharma).
The FP assay was developed and validated previously. Briefly, fluorescein-labeled probe (FITC-βA-PFKPP-NH2, 100 nmol/L) and Cbl (RING) protein (3 μmol/L) were mixed and diluted to the final concentration using 0.01% Triton X-100 in PBS (pH = 7.4). Then, 19 μl of this master mix was loaded to each reaction well. The peptides or peptide mimetics were then loaded to the designated wells (1 μl, 10 μmol/L– 0.078 μmol/L, half-fold dilutions). The total fluorescence and polarization values were measured at an excitation wavelength of 485 nm and an emission wavelength of 538 nm using a ZS-2 plate reader. The data was fitted, and the ΔmP, Kd, and Ki values were estimated, using SigmaPlot 11.0.

| Ki [µM] | Compound |
| --- | --- |
| 226 ± 22.5 | CC(=O)N[C@@H](CCCCN)C(=O)N1CSC[C@H]1C(=O)N[C@@H](CC(C)C)C(=O)N[C@H](C(=O)N[C@@H](CCCCN)C(N)=O)[C@@H](C)O [Peptide 56, Ac-K(r)LTK-NH2] (Ac-K[Thz]LTK-NH2) |
| 51.8 ± 0.8 | CC(=O)N[C@@H](CCCCN(O)C(C)=O)C(=O)N1CCC[C@H]1C(=O)N[C@@H](C)C(=O)N[C@H](C(=O)N[C@@H](CCCCN)C(N)=O)[C@@H](C)O [Peptide 40, Ac-(v)PATK-NH2] (Ac-[X1]PATK-NH2) |
| 126 ± 22.6 | CC(=O)CN(CCCC[C@H](NC(=O)[C@@H](NC(=O)[C@H](C)NC(=O)[C@@H]1CCCN1C(=O)[C@H](CCCCN(O)C(C)=O)NC(C)=O)[C@@H](C)O)C(N)=O)C(C)=O [Peptide 44, Ac-(v)PAT(w)-NH2] |
| 196 ± 12.3 | CC(=O)CN(CCCC[C@H](NC(C)=O)C(=O)N1CCC[C@H]1C(=O)N[C@@H](C)C(=O)N[C@H](C(=O)N[C@@H](CCCCN(O)C(C)=O)C(N)=O)[C@@H](C)O)C(C)=O [Peptide 45, Ac-(w)PAT(v)-NH2] |
| 59.8 ± 6.5 | CC(=O)N[C@@H](CCCCN)C(=O)N1CCC[C@H]1C(=O)N[C@@H](C)C(=O)N[C@H](C(=O)N[C@@H](CCCCN(O)C(C)=O)C(N)=O)[C@@H](C)O [Peptide 42, Ac-KPAT(v)-NH2] (Ac-KPAT[X1]-NH2) |
| 126 ± 3.2 | CC(=O)N[C@@H](CCCCN)C(=O)N1C[C@H](F)C[C@H]1C(=O)N[C@@H](C)C(=O)N[C@H](C(=O)N[C@@H](CCCCN)C(N)=O)C(C)C [Peptide 58, Ac-K(t)AVK-NH2] (Ac-K[Pro(trans-4-F)]AVK-NH2) |
| 72.6 ± 9.5 | CC(=O)CN(CCCC[C@H](NC(=O)[C@@H](NC(=O)[C@H](C)NC(=O)[C@@H]1CCCN1C(=O)[C@H](CCCCN)NC(C)=O)[C@@H](C)O)C(N)=O)C(C)=O [Peptide 43, Ac-KPAT(w)-NH2] (Ac-KPAT[X2]-NH2) |
| 91.2 ± 6.6 | CC(=O)N[C@@H](CCCCN)C(=O)N1CSC[C@H]1C(=O)N[C@H](C(=O)N[C@H](C(=O)N[C@@H](CCCCN)C(N)=O)[C@@H](C)O)C(C)C [Peptide 53, Ac-K(r)VTK-NH2] (Ac-K[Thz]VTK-NH2) |
| 96.2 ± 12.6 | CC(=O)CN(CCCC[C@H](NC(C)=O)C(=O)N1CCC[C@H]1C(=O)N[C@@H](C)C(=O)N[C@H](C(=O)N[C@@H](CCCCN)C(N)=O)[C@@H](C)O)C(C)=O [Peptide 41, Ac-(w)PATK-NH2] (Ac-[X2]PATK-NH2) |
| 44.3 ± 13.2 | CC(=O)N[C@@H](CCCCN)C(=O)N1CC=C[C@H]1C(=O)N[C@@H](C)C(=O)N[C@H](C(=O)N[C@@H](CCCCN)C(N)=O)[C@@H](C)O [Peptide 47, Ac-K(p)ATK-NH2] (Ac-K[ΔPro]ATK-NH2) |
| 145 ± 18.3 | CC[C@H](C)[C@H](NC(=O)[C@H](C)NC(=O)[C@@H]1C[C@@H](F)CN1C(=O)[C@H](CCCCN)NC(C)=O)C(=O)N[C@@H](CCCCN)C(N)=O [Peptide 59, Ac-K(t)AIK-NH2] (Ac-K[Pro(trans-4-F)]AIK-NH2) |
| 190 ± 19.2 | CC[C@H](C)[C@H](NC(=O)[C@@H]1CSCN1C(=O)[C@H](CCCCN)NC(C)=O)C(=O)N[C@H](C(=O)N[C@@H](CCCCN)C(N)=O)[C@@H](C)O [Peptide 55, Ac-K(r)ITK-NH2] (Ac-K[Thz]ITK-NH2) |
| 28.3 ± 2.8 | CC(=O)CN(CCCC[C@H](NC(=O)[C@H](Cc1cccc(F)c1)NC(=O)[C@@H]1CSCN1C(C)=O)C(=O)N1CCC[C@H]1C(=O)N1CCC[C@H]1C(N)=O)C(C)=O [Peptide 39, Ac-(r) (h) (w)PP-NH2] (Ac-[Thz][Phe(3-F)][X2]PP-NH2) |

The next lines start with the molecule.

| Compound | Ki [µM] |
| --- | --- |
| CC(=O)N1CCC[C@H]1C(=O)N[C@@H](Cc1cccc(F)c1)C(=O)N[C@@H](CCCCN)C(=O)N1CC[C@H]1C(=O)N1CCC[C@H]1C(N)=O [Peptide 26, Ac-P(h)K(q)P-NH2] (Ac-P[Phe(3-F)]K[Aze]P-NH2) | > 250 |
| CC(=O)N1CCC[C@H]1C(=O)N[C@@H](Cc1cccc(F)c1)C(=O)N[C@@H](CCCCN)C(=O)N1CCC[C@H]1C(=O)N1CCCC[C@H]1C(N)=O [Peptide 21, Ac-P(h)KP(s)-NH2] (Ac-P[Phe(3-F)]KP[Pip]-NH2) | 90.9 ± 0.7 |
| CC(=O)N1CCC[C@H]1C(=O)N[C@@H](Cc1ccc(F)cc1)C(=O)N[C@@H](CCCCN)C(=O)N1CCC[C@H]1C(=O)N1CCC[C@H]1C(N)=O [Peptide 11, Ac-P(i)KPP-NH2] (Ac-P[Phe(4-F)]KPP-NH2) | 2.4 ± 0.5 |
| CC(=O)N1C[C@H](F)C[C@H]1C(=O)N[C@@H](Cc1cccc(F)c1)C(=O)N[C@@H](CCCCN)C(=O)N1CCC[C@H]1C(=O)N1CCC[C@H]1C(N)=O [Peptide 36, Ac-(t) (h)KPP-NH2] (Ac-[Pro(trans-4-F)][Phe(3-F)]KPP-NH2) | 14.5 ± 2.9 |
| CC(=O)N1CCC[C@@H]1C(=O)N[C@@H](Cc1cccc(F)c1)C(=O)N[C@@H](CCCCN)C(=O)N1CCC[C@H]1C(=O)N1CCC[C@H]1C(N)=O [Peptide 31, Ac-(o) (h)KPP-NH2] (Ac-[dP][Phe(3-F)]KPP-NH2) | 4.5 ± 0.5 |
| CC(=O)N1CCC[C@H]1C(=O)N[C@@H](Cc1cccc(C)c1)C(=O)N[C@@H](CCCCN)C(=O)N1CCC[C@H]1C(=O)N1CCC[C@H]1C(N)=O [Peptide 7, Ac-P(e)KPP-NH2] (Ac-P[Phe(3-Me)]KPP-NH2) | 4.5 ± 1 |
| CC(=O)N1CCC[C@H]1C(=O)N[C@@H](Cc1cccc(F)c1)C(=O)N[C@@H](CCCCN)C(=O)N1C[C@H](F)C[C@H]1C(=O)N1CCC[C@H]1C(N)=O [Peptide 29, Ac-P(h)K(t)P-NH2] (Ac-P[Phe(3-F)]K[Pro(trans-4-F)]P-NH2) | 24.6 ± 5.8 |
| CC(=O)N1CCC[C@H]1C(=O)N[C@@H](Cc1cccc(F)c1)C(=O)N[C@@H](CCCCN)C(=O)N1CCC[C@H]1C(=O)N1CCC[C@@H]1C(N)=O [Peptide 17, Ac-P(h)KP(o)-NH2] (Ac-P[Phe(3-F)]KP[dP]-NH2) | 12.5 ± 0.9 |
| CC(=O)N1CCC[C@H]1C(=O)N[C@@H](Cc1ccccc1F)C(=O)N[C@@H](CCCCN)C(=O)N1CCC[C@H]1C(=O)N1CCC[C@H]1C(N)=O [Peptide 9, Ac-P(g)KPP-NH2] (Ac-P[Phe(2-F)]KPP-NH2) | 3.5 ± 0.6 |
| CC(=O)N(O)CCCC[C@H](NC(=O)[C@H](Cc1cccc(F)c1)NC(=O)[C@@H]1CSCN1C(C)=O)C(=O)N1CCC[C@H]1C(=O)N1CCC[C@H]1C(N)=O [Peptide 38, Ac-(r) (h) (v)PP-NH2] (Ac-[Thz][Phe(3-F)][X1]PP-NH2) | 21.6 ± 2.6 |
| CC(=O)N1CCC[C@H]1C(=O)N[C@@H](Cc1cccc(F)c1)C(=O)N[C@@H](CCCCN)C(=O)N1CCC[C@H]1C(=O)N1CSC[C@H]1C(N)=O [Peptide 20, Ac-P(h)KP(r)-NH2] (Ac-P[Phe(3-F)]KP[Thz]-NH2) | 3.7 ± 0.4 |
| CC(=O)N1CCC[C@H]1C(=O)N[C@@H](Cc1ccc(N)cc1)C(=O)N[C@@H](CCCCN)C(=O)N1CCC[C@H]1C(=O)N1CCC[C@H]1C(N)=O [Peptide 12, Ac-P(j)KPP-NH2] (Ac-P[Phe(4-NH2)]KPP-NH2) | 4.5 ± 0.8 |
| CC(=O)N1CCC[C@H]1C(=O)N[C@@H](Cc1cccc(F)c1)C(=O)N[C@@H](CCCCN)C(=O)N1CC=C[C@H]1C(=O)N1CCC[C@H]1C(N)=O [Peptide 25, Ac-P(h)K(p)P-NH2] (Ac-P[Phe(3-F)]K[ΔPro]P-NH2) | > 250 |
| CC(=O)N1CCC[C@H]1C(=O)N[C@@H](Cc1cccc(F)c1)C(=O)N[C@@H](CCCCN)C(=O)N1CCC[C@H]1C(=O)N1C[C@H](F)C[C@H]1C(N)=O [Peptide 22, Ac-P(h)KP(t)-NH2] (Ac-P[Phe(3-F)]KP[Pro(trans-4-F)]-NH2) | 31.2 ± 0.4 |
| CC(=O)N1CCC[C@H]1C(=O)N[C@@H](Cc1cccc(F)c1)C(=O)N[C@@H](CCCCN)C(=O)N1CCC[C@H]1C(=O)N1CC[C@H]1C(N)=O [Peptide 19, Ac-P(h)KP(q)-NH2] (Ac-P[Phe(3-F)]KP[Aze]-NH2) | > 250 |
| CC(=O)N1CCC[C@H]1C(=O)N[C@H](Cc1ccccc1)C(=O)N[C@@H](CCCCN)C(=O)N1CCC[C@H]1C(=O)N1CCC[C@H]1C(N)=O [Peptide 16, Ac-P(n)KPP-NH2] (Ac-P[dF]KPP-NH2) | 15.4 ± 0.4 |
| CC(=O)N1CCC[C@H]1C(=O)N[C@@H](Cc1ccc([N+](=O)[O-])cc1)C(=O)N[C@@H](CCCCN)C(=O)N1CCC[C@H]1C(=O)N1CCC[C@H]1C(N)=O [Peptide 13, Ac-P(k)KPP-NH2] (Ac-P[Phe(4-NO2)]KPP-NH2) | 4.2 ± 0.4 |
| CC(=O)N1CCCC[C@H]1C(=O)N[C@@H](Cc1cccc(F)c1)C(=O)N[C@@H](CCCCN)C(=O)N1CCC[C@H]1C(=O)N1CCC[C@H]1C(N)=O [Peptide 35, Ac-(s) (h)KPP-NH2] (Ac-[Pip][Phe(3-F)]KPP-NH2) | 122 ± 9.8 |
| CC(=O)N1CCC[C@H]1C(=O)N[C@@H](Cc1ccccc1C)C(=O)N[C@@H](CCCCN)C(=O)N1CCC[C@H]1C(=O)N1CCC[C@H]1C(N)=O [Peptide 6, Ac-P(d)KPP-NH2] (Ac-P[Phe(2-Me)]KPP-NH2) | 10.2 ± 1.5 |
| CC(=O)N1CCC[C@H]1C(=O)N[C@@H](CC1CCCCC1)C(=O)N[C@@H](CCCCN)C(=O)N1CCC[C@H]1C(=O)N1CCC[C@H]1C(N)=O [Peptide 5, Ac-P(c)KPP-NH2] (Ac-P[Cha]KPP-NH2) | 125 ± 12.6 |
| CC(=O)N1CCC[C@H]1C(=O)N[C@@H](Cc1cccc(F)c1)C(=O)N[C@@H](CCCCN)C(=O)N1CCC[C@H]1C(=O)N1CC=C[C@H]1C(N)=O [Peptide 18, Ac-P(h)KP(p)-NH2] (Ac-P[Phe(3-F)]KP[ΔPro]-NH2) | > 250 |
